Test results taken from patent US20120302954A1, “EXPANDABLE DEVICES COATED WITH A PACLITAXEL COMPOSITION” (priority 2011, published 2012).
Blank lines part the entries; values can stand above or below the compound they belong to.

Columns and labels:
[1] = Percent drug content change of coated cobalt-chromium 18 mm stent over 0 to 12 weeks (FIG. 1); type: physicochemical; settings: 0.02 weight percent BHT per total basecoat solids; 8 weeks and 12 weeks, ambient conditions (25° C.)
Text: Referring to FIG. 1, there is illustrated in graphical format, the results of the same drug screening as described above with the solution applied to a cobalt-chromium, 18 mm stent. In this test, two sets of solution samples were utilized, one with sirolimus and polymer solution containing the antioxidant and one with sirolimus and polymer solution containing no antioxidant. The antioxidant utilized was 0.02 weight percent BHT per total basecoat solids. The test was utilized to determine the percent drug content change over a time period of 0 to 12 weeks under two conditions; namely, 40° C. with 75 percent relative humidity, and ambient conditions (25° C.).

[2] = Method: Table 9, shown below, summarizes a number of injectable liquid formulations of paclitaxel utilizing combinations of ethanol, PEG 400 and water. Specifically, the formulations set forth in Table 9 were made and analyzed for their concentrations of its various constituents. The concentrations are determined by liquid chromatography and are presented as weight by volume figures. The concentration of ethanol is preferably two or less percent so as to avoid ethanol becoming an active ingredient in the formulation.
Another aqueous liquid or injectable formulation of paclitaxel is made utilizing ethanol, PEG 400 and water, and ethanol, Vitamin E TPGS, PEG400 and water. In making the first formulation, 100 mg of paclitaxel is added to 400 μl of ethanol in a pre-weighed 20 ml scintillation vial. The mixture of paclitaxel and ethanol is vortexed and heated in a 60 degree C. bath for ten minutes. Once the drug is completely solubilized, 20 ml of PEG 400 is then added to make the final paclitaxel concentration 5 mg/ml. […] In a separate experiment, a series of 20 ml scintillation vials containing Vitamin E TPGS are heated or warmed up in a 50 degree C. water bath for ten minutes. Concurrently, distilled water is also warmed in a 50 degree C. water bath. […]

[3] = Drug concentration in liquid formulations by liquid chromatography / HPLC; type: physicochemical
Text: A series of liquid formulations were developed for the local or regional delivery of water insoluble compounds such as sirolimus and its analogs, including CCI-779, ABT-578 and everolimus, through weeping balloons and catheter injection needles. Sirolimus and its analogs are rapamycins. These liquid formulations increase the apparent solubility of the pharmacologically active but water insoluble compounds by two to four orders of magnitude as compared to the solubility limits of the compounds in water. These liquid formulations rely on the use of a very small amount of organic solvents such as Ethanol and a larger amount of safe amphiphilic (of or relating to a molecule having a polar, water soluble group attached to a non-polar, water insoluble […]) excipients such as polyethylene glycol (PEG 200, PEG 400) and vitamin E TPGS to enhance the solubility of the compounds. These liquid formulations of highly water insoluble compounds are stable and readily flowable at room temperature. Certain excipients, such as Vitamin E TPGS and BHT may be utilized to enhance the storage stability of sirolimus compounds through their anti-oxidation properties.
Table 7, shown below, summarizes the concentrations of the excipient, the co-solvents and the drug for four different liquid formulations. […]

[4] = Sirolimus tissue concentration in porcine coronary arteries by LC-MS; type: in vivo; settings: 50 mg/ml
Method: In accordance with a second experiment, the efficacy of a PTCA balloon coated with the 5 percent BHT solution was tested in a porcine injury model. The balloon coating formulation of sirolimus and BHT (5 percent BHT, w/w) was made according to the procedure described above. In total, three coating solutions of sirolimus and BHT (5 percent BHT, w/w) and one coating solution without BHT were prepared for the study. A standard CYPHER® Sirolimus-eluting Coronary Stent available from the Cordis Corporation was used as a control for the study. Both FIRE STAR® PTCA balloons (3.5 mm×20 mm, with total surface area of 220 mm^2) with hydrophilic treatment and the ones without a hydrophilic treatment were tested in the study. The final coating density of sirolimus and sirolimus loss during expansion were measured by HPLC. The tissue concentration in the porcine coronary arteries was measured by liquid chromatography-mass spectroscopy (LC-MS). The amount of intimal hyperplasia was determined by standard quantitative coronary angiography (QCA) at day 30.

percent drug content change (drug degradation) [1]: lessens drug degradation
Compound: Cc1cc(C(C)(C)C)c(O)c(C(C)(C)C)c1 [BHT, butylated hydroxytoluene]

fold higher than the solubility in water [2]: about 1000 fold
concentration reached in true aqueous liquid formulations ([2]; PEG 400 / Vitamin E TPGS / ethanol / water): up to 2.5 mg/ml
Compound: CC(=O)O[C@H]1C(=O)[C@@]2(C)[C@H]([C@H](OC(=O)c3ccccc3)[C@]3(O)C[C@H](OC(=O)[C@H](O)[C@@H](NC(=O)c4ccccc4)c4ccccc4)C(C)=C1C3(C)C)[C@]1(OC(C)=O)CO[C@@H]1C[C@@H]2O [paclitaxel]

concentration in the final solution (HPLC assay) ([3]; ethanol less than two percent, Vitamin E TPGS, water): 15000 µg/mL
Compound: CO[C@H]1C[C@@H]2CC[C@@H](C)[C@@](O)(O2)C(=O)C(=O)N2CCCC[C@H]2C(=O)O[C@H]([C@H](C)C[C@@H]2CC[C@@H](OC(=O)C(C)(CO)CO)[C@H](OC)C2)CC(=O)[C@H](C)/C=C(\C)[C@@H](O)[C@@H](OC)C(=O)[C@H](C)C[C@H](C)/C=C/C=C/C=C/1C [CCI-779]

concentration in the 4 mg/ml PEG 200 formulation relative to the solubility in water ([3]; PEG 200 excipient, ethanol and water co-solvents): four hundred to about one thousand
Sirolimus conc in artery tissue post-deploy ([4]; 20 min, hydrophilic coat No, Acetone/ethanol/water (50/40/10), BHT 5% (PKd)): 382 ± 190 ng sirolimus/mg tissue
Sirolimus conc in artery tissue post-deploy ([4]; 20 min, hydrophilic coat No, IPA/Water (3.4/1), BHT 5% (PKb)): 218 ± 96 ng sirolimus/mg tissue
Sirolimus conc in artery tissue post-deploy ([4]; 20 min, hydrophilic coat yes, IPA/Water (3.4/1), BHT 0% (PKc)): 219 ± 85 ng sirolimus/mg tissue
Sirolimus conc in artery tissue post-deploy ([4]; 20 min, hydrophilic coat yes, IPA/Water (3.4/1), BHT 5% (Pka)): 313 ± 61 ng sirolimus/mg tissue
Sirolimus conc in artery tissue post-deploy ([4]; 24 hr, hydrophilic coat No, Acetone/ethanol/water (50/40/10), BHT 5% (PKd)): 25 ± 20 ng sirolimus/mg tissue
Sirolimus conc in artery tissue post-deploy ([4]; 24 hr, hydrophilic coat No, IPA/Water (3.4/1), BHT 5% (PKb)): 39 ± 37 ng sirolimus/mg tissue
Sirolimus conc in artery tissue post-deploy ([4]; 24 hr, hydrophilic coat yes, IPA/Water (3.4/1), BHT 0% (PKc)): 16 ± 11 ng sirolimus/mg tissue
Sirolimus conc in artery tissue post-deploy ([4]; 24 hr, hydrophilic coat yes, IPA/Water (3.4/1), BHT 5% (Pka)): 40.7 ± 14.6 ng sirolimus/mg tissue
Sirolimus conc in artery tissue post-deploy ([4]; 8 day, hydrophilic coat No, Acetone/ethanol/water (50/40/10), BHT 5% (PKd)): 21 ± 36 ng sirolimus/mg tissue
Sirolimus conc in artery tissue post-deploy ([4]; 8 day, hydrophilic coat No, IPA/Water (3.4/1), BHT 5% (PKb)): 14 ± 15 ng sirolimus/mg tissue
Sirolimus conc in artery tissue post-deploy ([4]; 8 day, hydrophilic coat yes, IPA/Water (3.4/1), BHT 0% (PKc)): 16 ± 18 ng sirolimus/mg tissue
Sirolimus conc in artery tissue post-deploy ([4]; 8 day, hydrophilic coat yes, IPA/Water (3.4/1), BHT 5% (Pka)): 9.8 ± 10.4 ng sirolimus/mg tissue
Sirolimus conc in artery tissue post-deploy ([4]; 30 day, hydrophilic coat No, Acetone/ethanol/water (50/40/10), BHT 5% (PKd)): 12 ± 18 ng sirolimus/mg tissue
Sirolimus conc in artery tissue post-deploy ([4]; 30 day, hydrophilic coat No, IPA/Water (3.4/1), BHT 5% (PKb)): 5.0 ± 4.8 ng sirolimus/mg tissue
Sirolimus conc in artery tissue post-deploy ([4]; 30 day, hydrophilic coat yes, IPA/Water (3.4/1), BHT 0% (PKc)): 3.2 ± 2.8 ng sirolimus/mg tissue
Sirolimus conc in artery tissue post-deploy ([4]; 30 day, hydrophilic coat yes, IPA/Water (3.4/1), BHT 5% (Pka)): 8.4 ± 5.7 ng sirolimus/mg tissue
Compound: CO[C@H]1C[C@@H]2CC[C@@H](C)[C@@](O)(O2)C(=O)C(=O)N2CCCC[C@H]2C(=O)O[C@H]([C@H](C)C[C@@H]2CC[C@@H](O)[C@H](OC)C2)CC(=O)[C@H](C)/C=C(\C)[C@@H](O)[C@@H](OC)C(=O)[C@H](C)C[C@H](C)/C=C/C=C/C=C/1C [Rapamycin, rapamycin]
